We go through eight molecules from ChEMBL document CHEMBL1128755, “LTD4 Receptor binding activity of novel pyridine chromanols: qualitative correlation with pKa” (Bioorg Med Chem Lett, 1995).

The Ki is the equilibrium dissociation constant of an inhibitor or competing ligand from its target. Read a high Ki as lower affinity. For orientation: logP means a log measure of how a compound divides between an organic and an aqueous phase. Broadly, the pKa is the pH at which an ionisable group is half protonated. Read a low pKa as a stronger acid or weaker base.

The target in data set [1] is T1, Cysteinyl leukotriene receptor 1 (Cavia porcellus, UniProt Q2NNR5).
T1 sequence (Q2NNR5 whole entry): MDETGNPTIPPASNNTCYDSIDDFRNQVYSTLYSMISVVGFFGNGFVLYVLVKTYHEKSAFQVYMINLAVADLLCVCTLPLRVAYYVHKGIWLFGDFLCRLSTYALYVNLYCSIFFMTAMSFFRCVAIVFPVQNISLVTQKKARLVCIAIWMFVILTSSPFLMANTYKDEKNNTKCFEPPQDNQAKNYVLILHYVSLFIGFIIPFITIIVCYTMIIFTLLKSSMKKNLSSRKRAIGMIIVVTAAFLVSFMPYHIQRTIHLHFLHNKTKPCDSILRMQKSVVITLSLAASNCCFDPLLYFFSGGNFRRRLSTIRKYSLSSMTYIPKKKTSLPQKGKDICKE
Description: Compound was tested for the inhibition of [3H]leukotriene D4 binding to LTD4 receptor in guinea pig lung membranes. It is filed as cell membranes, Membrane.

The nature of data set [2]: Partition coefficient (logP). As to conditions: octanol/water. It counts as physicochemical.
A short description of data set [3]: Association constant (pKa) was determined. It is filed as physicochemical.

Regarding `O[C@@H]1c2cc(OCc3ccc4ccccc4n3)ccc2OC[C@@H]1Cc1cccnc1`, affinity in data set [1] was put at a Ki of 1640 nM. Also, in data set [2], the logP turned out to be 2.04. This molecule also had a pKa in data set [3] of 4.81.
In the same order, the values of `O[C@@H]1c2cc(OCc3ccccn3)ccc2OC[C@@H]1Cc1cccnc1` are more than 100000 nM, 0.66 and 5.25.
Molecule `O[C@@H]1c2cc(OCc3cccc(F)n3)ccc2OC[C@@H]1Cc1cccnc1` showed an inhibition constant (Ki) in data set [1] of more than 100000 nM. For the same molecule, the logP in data set [2] is 0.84. In data set [3], this molecule gave a pKa of -0.44.
In the same order, the values of `Cc1nc(COc2ccc3c(c2)[C@@H](O)[C@@H](Cc2cccnc2)CO3)ccc1[N+](=O)[O-]` are 240 nM, 0.99 and 1.52.
In the same order, the values of `Cc1cccc(COc2ccc3c(c2)[C@@H](O)[C@@H](Cc2cccnc2)CO3)n1` are more than 100000 nM, 1.11 and 5.96.
In the same order, the values of `O[C@@H]1c2cc(OCc3cccc(Cl)n3)ccc2OC[C@@H]1Cc1cccnc1` are 23400 nM, 1.27 and 0.72.
The molecule `Cc1nc(COc2ccc3c(c2)[C@@H](O)[C@@H](Cc2cccnc2)CO3)ccc1Br` gave an inhibition constant (Ki) in data set [1] of 1560 nM. Also, the logP in data set [2] worked out at 2.09. Also, in data set [3], the pKa turned out to be 3.55.
Turning to `c1ccc2ncccc2c1` [QUINOLINE], the pKa in data set [3] was 4.81.
